pEC50, pIC50: −log10 of the molar value.
Columns and labels:
human D2R/β-arrestin [1] = biological target: T1, human D2R/β-arrestin (Homo sapiens (Human), UniProt P14416); assay: cell-based; conditions: cAMP Antagonist, CHO-K1 cell line expressing human D2R/β-arrestin; quinpirole used as agonist
human D2R/β-arrestin [2] = biological target: T1, human D2R/β-arrestin; assay: β-Arrestin agonist assay (PathHunter); format: cell-based; conditions: CHO-K1 cell line expressing human D2R/β-arrestin
Summary of the method: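 Readout follows addition of Buffer:Emerald II:Galactor-Star reagent (19:5:1) to agonist-treated plates, measured as luminescence or fluorescence.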

human D2R/β-arrestin [3] = biological target: T1, human D2R/β-arrestin; assay: cell-based; conditions: β-arrestin Antagonist, CHO-K1 cell line expressing human D2R/β-arrestin; quinpirole used as agonist
Experimental: The detection reagents are then added, and the read-out is detected.
Cells were prepared for assays by growing cultures for up to 2 weeks (from about 6-20 passages). A vial of frozen cells was thawed in a water bath held at 37° C. The cells were then transferred into a 50 ml tube with 10 ml growth media. The vial was rinsed with growth media and the contents transferred to the 50 ml tube. The 50 ml tube was centrifuged at 1200 rpm for 5 minutes at room temperature. […] When the cells reached about 90% confluence (approximately 3 days between passages), the cells were passaged and used for either the agonist or antagonist assays as described below.
The cells were prepared for β-arrestin assays as described above. The assays were performed using a PathHunter® β-Arrestin Detecting Kit (DiscoveRX). The cells were grown on 225 mm dishes, then washed once with 1×PBS (Cellgro), followed by digestion with 2.5 ml 1× Detachment reagent (DRX 92-0009) for approximately 2 minutes.

human D2R/β-arrestin [4] = biological target: T1, human D2R/β-arrestin; assay: Gi/cAMP agonist assay (Lance Ultra cAMP, Forskolin); format: cell-based; conditions: CHO-K1 cell line expressing human D2R/β-arrestin
Summary of the method: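 Read-out was Lance Ultra competitive TR-FRET (Eu-cAMP tracer plus ULight-anti-cAMP) following forskolin-induced cAMP production. Before forskolin stimulation, compounds were pin-transferred onto the seeded cells for 10 min at 37 °C.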

T1 sequence (P14416 whole entry): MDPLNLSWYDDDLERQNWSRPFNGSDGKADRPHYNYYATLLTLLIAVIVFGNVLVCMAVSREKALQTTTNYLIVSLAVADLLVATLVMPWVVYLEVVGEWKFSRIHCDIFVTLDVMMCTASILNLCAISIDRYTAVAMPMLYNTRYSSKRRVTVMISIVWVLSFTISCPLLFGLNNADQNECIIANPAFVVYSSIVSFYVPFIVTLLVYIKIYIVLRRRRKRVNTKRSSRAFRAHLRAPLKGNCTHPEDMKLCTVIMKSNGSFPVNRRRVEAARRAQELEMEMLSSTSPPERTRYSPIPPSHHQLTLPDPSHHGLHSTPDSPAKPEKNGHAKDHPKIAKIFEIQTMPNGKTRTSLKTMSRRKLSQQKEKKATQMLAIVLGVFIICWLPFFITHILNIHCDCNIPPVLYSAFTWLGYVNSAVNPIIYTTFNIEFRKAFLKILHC

Row | pIC50 (human D2R/β-arrestin [1]) | pEC50 (human D2R/β-arrestin [2]) | pIC50 (human D2R/β-arrestin [3]) | pEC50 (human D2R/β-arrestin [4]) | Compound
1 | 6.00 to 7.00 | < 4.52 | 6.00 to 7.00 | < 4.52 | Fc1ccc(F)c(OCCN2CCC(CNC(c3ccc(Cl)cc3)c3ccccn3)CC2)c1 (single isomer, unassigned) [Compound 89a, 1-(4-chlorophenyl)-N-((1-(2-(2,5-difluorophenoxy)ethyl)piperidin-4-yl)methyl)-1-(pyridin-2-yl)methanamine]
2 | 6.00 to 7.00 | < 4.52 | 5.00 to 6.00 | 6.00 to 7.00 | CC(C1CCN(CCOc2ccccc2)CC1)N(C)C(c1ccc(Cl)cc1)c1ccccn1 (single isomer, unassigned) [Compound 97a, N-((4-chlorophenyl)(pyridin-2-yl)methyl)-N-methyl-1-(1-(2-phenoxyethyl)piperidin-4-yl)ethan-1-amine]
3 | 4.52 to 5.00 | < 4.52 | 4.52 to 5.00 | < 4.52 | O=C(NC(c1ccc(Cl)cc1)c1ccccn1)C1CCN(CCOc2ccncc2)CC1 (stereo not drawn) [Compound 142, N-((4-chlorophenyl)(pyridin-2-yl)methyl)-1-(2-(pyridin-4-yloxy)ethyl)piperidine-4-carboxamide]
4 | > 7.00 | < 4.52 | 6.00 to 7.00 | < 4.52 | CC1(CNC(c2ccc(F)cc2)c2ccccn2)CCN(CCOc2ccccc2C(F)(F)F)CC1 (stereo not drawn) [Compound 101, 1-(4-fluorophenyl)-N-((4-methyl-1-(2-(2-(trifluoromethyl)phenoxy)ethyl)piperidin-4-yl)methyl)-1-(pyridin-2-yl)methanamine]
5 | 6.00 to 7.00 | < 4.52 | 5.00 to 6.00 | 5.00 to 6.00 | Fc1ccccc1OCCN1CCC(CNC(c2ccc3c(c2)OCO3)c2ccccn2)CC1 (stereo not drawn) [Compound 139, 1-(benzo[d][1,3]dioxol-5-yl)-N-((1-(2-(2-fluorophenoxy)ethyl)piperidin-4-yl)methyl)-1-(pyridin-2-yl)methanamine]
6 | > 7.00 | < 4.52 | > 7.00 | < 4.52 | FC(F)(F)c1ccccc1OCCN1CCC(CNC(c2ccc(Cl)cc2)c2ccccn2)CC1 (stereo not drawn) [Compound 120, 1-(4-chlorophenyl)-1-(pyridin-2-yl)-N-((1-(2-(2-(trifluoromethyl)phenoxy)ethyl)piperidin-4-yl)methyl)methanamine]
7 | 6.00 to 7.00 | < 4.52 | 6.00 to 7.00 | 5.00 to 6.00 | Fc1ccc(C(NCC2CCN(CCOc3ccccc3F)CC2)c2ccccn2)cc1 (stereo not drawn) [Compound 122, N-((1-(2-(2-fluorophenoxy)ethyl)piperidin-4-yl)methyl)-1-(4-fluorophenyl)-1-(pyridin-2-yl) methanamine]
8 | < 4.52 | < 4.52 | 5.00 to 6.00 | > 7.00 | Oc1c(CN2CCN(c3ccccn3)CC2)cc(Cl)c2cccnc12 [MLS1547, reference compound]
9 | 6.00 to 7.00 | < 4.52 | 6.00 to 7.00 | < 4.52 | Fc1ccc(F)c(OCCN2CCC(CNC(c3ccc(Cl)cc3)c3ccccn3)CC2)c1 (stereo not drawn) [Compound 89, 1-(4-chlorophenyl)-N-((1-(2-(2,5-difluorophenoxy)ethyl)piperidin-4-yl)methyl)-1-(pyridin-2-yl)methanamine]
10 | > 7.00 | < 4.52 | > 7.00 | > 7.00 | CC(C)N(CC1CCN(CCOc2ccccc2F)CC1)C(c1ccc(Cl)cc1)c1ccccn1 (stereo not drawn) [Compound 133, N-((4-chlorophenyl)(pyridin-2-yl)methyl)-N-((1-(2-(2-fluorophenoxy)ethyl)piperidin-4-yl)methyl)propan-2-amine]
11 | < 4.52 | > 7.00 | > 7.00 | > 7.00 | CC1(C(=O)NC(c2ccc(Cl)cc2)c2ccccn2)CCN(CCOc2ccccc2)CC1 (stereo not drawn) [Compound 144, N-((4-chlorophenyl)(pyridin-2-yl)methyl)-4-methyl-1-(2-phenoxyethyl)piperidine-4-carboxamide]
12 | 6.00 to 7.00 | < 4.52 | 6.00 to 7.00 | < 4.52 | O=C(NC(c1ccccc1F)c1ccccc1F)C1CCN(CCOc2ccccc2Cl)CC1 [Compound 84, N-(bis(2-fluorophenyl)methyl)-1-(2-(2-chlorophenoxy)ethyl)piperidine-4-carboxamide]
13 | 6.00 to 7.00 | < 4.52 | 6.00 to 7.00 | < 4.52 | CC1(CNC(c2ccc(F)cc2)c2ccccn2)CCN(CCOc2ccccc2C(F)(F)F)CC1 (single isomer, unassigned) [Compound 101a, 1-(4-fluorophenyl)-N-((4-methyl-1-(2-(2-(trifluoromethyl)phenoxy)ethyl)piperidin-4-yl)methyl)-1-(pyridin-2-yl)methanamine]
14 | 5.00 to 6.00 | < 4.52 | 5.00 to 6.00 | < 4.52 | O=C(NC(c1ccc(Cl)cc1)c1ccccn1)C1CCN(CCOc2ccccn2)CC1 (stereo not drawn) [Compound 141, N-((4-chlorophenyl)(pyridin-2-yl)methyl)-1-(2-(pyridin-2-yloxy)ethyl)piperidine-4-carboxamide]
15 | 6.00 to 7.00 | < 4.52 | 6.00 to 7.00 | < 4.52 | Fc1ccccc1C(NCC1CCN(CCOc2ccccc2)CC1)c1ccc(Cl)cc1 (single isomer, unassigned) [Compound 81a, 1-(4-chlorophenyl)-1-(2-fluorophenyl)-N-((1-(2-phenoxyethyl)piperidin-4-yl)methyl)methanamine]

More lines, now with the values behind:

Row | Compound | pIC50 (human D2R/β-arrestin [1]) | pEC50 (human D2R/β-arrestin [2]) | pIC50 (human D2R/β-arrestin [3]) | pEC50 (human D2R/β-arrestin [4])
16 | CN(CC1CCN(CCOc2ccccc2)CC1)C(c1ccc(F)cc1)c1ccccn1 (stereo not drawn) [Compound 74, 1-(4-fluorophenyl)-N-methyl-N-((1-(2-phenoxyethyl)piperidin-4-yl)methyl)-1-(pyridin-2-yl)methanamine] | 6.00 to 7.00 | < 4.52 | 6.00 to 7.00 | > 7.00
17 | O=C(NC(c1ccc(F)cc1)c1ccccn1)C1CCN(CCOc2c(F)cccc2F)CC1 (stereo not drawn) [Compound 56, 1-(2-(2,6-difluorophenoxy)ethyl)-N-((4-fluorophenyl)(pyridin-2-yl)methyl) piperidine-4-carboxamide] | 6.00 to 7.00 | < 4.52 | 6.00 to 7.00 | < 4.52
18 | O=C(NC(c1ccccn1)c1ccccc1C(F)(F)F)C1CCN(CCOc2ccccc2)CC1 (stereo not drawn) [Compound 33, 1-(2-phenoxyethyl)-N-(pyridin-2-yl(2-(trifluoromethyl)phenyl)methyl) piperidine-4-carboxamide] | < 4.52 | < 4.52 | 4.52 to 5.00 | 5.00 to 6.00
19 | O=C(NC(c1ccc(F)cc1)c1ccccc1F)C1CCN(CCOc2ccccc2)CC1 (stereo not drawn) [Compound 49, N-((2-fluorophenyl)(4-fluorophenyl)methyl)-1-(2-phenoxyethyl)piperidine-4-carboxamide] | 5.00 to 6.00 | < 4.52 | 6.00 to 7.00 | 5.00 to 6.00
20 | CC1(C(=O)NC(c2ccc(F)cc2)c2ccccn2)CCN(CCOc2ccccc2)CC1 (single isomer, unassigned) [Compound 69a, N-((4-fluorophenyl)(pyridin-2-yl)methyl)-4-methyl-1-(2-phenoxyethyl)piperidine-4-carboxamide] | < 4.52 | 6.00 to 7.00 | 5.00 to 6.00 | 6.00 to 7.00
21 | Fc1ccc(C(NCC2CCN(CCOc3ccccc3)CC2)c2ccccn2)cc1 (stereo not drawn) [Compound 78, 1-(4-fluorophenyl)-N-((1-(2-phenoxyethyl)piperidin-4-yl)methyl)-1-(pyridin-2-yl)methanamine] | 5.00 to 6.00 | < 4.52 | 5.00 to 6.00 | 6.00 to 7.00
22 | CC1(C(=O)NC(c2ccc(F)cc2)c2ccccn2)CCN(CCOc2ccccc2)CC1 (stereo not drawn) [Compound 69, N-((4-fluorophenyl)(pyridin-2-yl)methyl)-4-methyl-1-(2-phenoxyethyl)piperidine-4-carboxamide] | < 4.52 | 6.00 to 7.00 | 6.00 to 7.00 | > 7.00
23 | O=C(NC(c1ccc(Cl)cc1)c1ccccn1)C1CCN(CCOc2ccccc2)CC1 (single isomer, unassigned) [Compound 63a, N-((4-chlorophenyl)(pyridin-2-yl)methyl)-1-(2-phenoxyethyl)piperidine-4-carboxamide] | < 4.52 | < 4.52 | 5.00 to 6.00 | 6.00 to 7.00
24 | Fc1ccccc1C(NCC1CCN(CCOc2ccccc2)CC1)c1ccc(Cl)cc1 (stereo not drawn) [Compound 81, 1-(4-chlorophenyl)-1-(2-fluorophenyl)-N-((1-(2-phenoxyethyl)piperidin-4-yl)methyl)methanamine] | 6.00 to 7.00 | < 4.52 | 6.00 to 7.00 | < 4.52
25 | O=C(NC(c1ccc2c(c1)OC(F)(F)O2)c1ccccn1)C1CCN(CCOc2ccccc2)CC1 (stereo not drawn) [Compound 119] | < 4.52 | < 4.52 | 6.00 to 7.00 | > 7.00
26 | CC(C)C(NC(=O)C1CCN(CCOc2ccccc2)CC1)c1ccccn1 (stereo not drawn) [Compound 38, N-(2-methyl-1-(pyridin-2-yl)propyl)-1-(2-phenoxyethyl)piperidine-4-carboxamide] | < 4.52 | < 4.52 | 5.00 to 6.00 | 5.00 to 6.00
27 | COc1cccc(C(c2ccccn2)N(C)CC2CCN(CCOc3ccccc3)CC2)c1 (stereo not drawn) [Compound 76, 1-(3-methoxyphenyl)-N-methyl-N-((1-(2-phenoxyethyl)piperidin-4-yl)methyl)-1-(pyridin-2-yl)methanamine] | 4.52 to 5.00 | < 4.52 | 5.00 to 6.00 | > 7.00

From US10752588B2 (The Broad Institute, Inc., priority 2014, dated 2020)
